Laboratory results as given in publication PMC7490411 (Signal Transduction and Targeted Therapy, 2020).

Tests used:
[1] = drug enrichment in the tumor; assay type: in vivo, mouse; details: 100 mg/kg
TMD8 = experiment: anti-proliferative CellTiter-Glo assay; assay type: cell-based; details: Homo sapiens, TMD8, 72 h
Procedure: (§1) Cell viability was measured using the CellTiter–Glo assay (Promega, USA) according to the manufacturer’s instructions, and […] was measured in a Bio-red Microplate reader (Bio-Red, USA).

REC-1 = experiment: anti-proliferative CellTiter-Glo assay; assay type: cell-based; details: Homo sapiens, Rec1; REC-1, 72 h
Procedure: as §1

[2] = test system: REC-1 cell (MCL)-inoculated xenograft; experiment: REC-1 cell subcutaneous xenograft tumor model; assay type: in vivo; details: REC-1 xenograft, 100 mg/kg/day, 14 days
[3] = test system: TMD8 cell (DLBCL)-inoculated xenograft; experiment: TMD8 cell subcutaneous xenograft tumor model; assay type: in vivo; details: TMD8 xenograft, 100 mg/kg/day, 28 days
Mino cells = experiment: NK-cell-mediated ADCC, LDH release cytotoxicity assay, Rituximab; assay type: cell-based, human
Procedure: (§2) The cytotoxicity of NK cells was measured using the CyQUANT™ LDH Cytotoxicity Assay Kit (Invitrogen™, #C20300) according to the manufacturer’s instructions. Briefly, enriched NK cells (6 × 10^5 /ml) were cultured with the same volume of Mino cell and SK-OV-3 cell (1-2 × 10^4 /ml) in a 96-well plate for 4 h with Rituximab and Herceptin (10 μg/mL) and CHMFL-BTK-85 or PCI32765 at 37°C in a humidified CO2 incubator prior to removal of the supernatant for lactate dehydrogenase (LDH) release measurements. Calculate % Cytotoxicity by using the following formula: %Cytotoxicity = (Compound-treated LDH activity-Spontaneous LDH activity)/(Maximum LDH activity-Spontaneous LDH activity)*100.

SK-OV-3 cells = experiment: NK-cell-mediated ADCC, LDH release cytotoxicity assay, Herceptin; assay type: cell-based, human
Procedure: as §2

[4] = test system: REC-1 cells bone marrow engraftment; experiment: REC-1 cells bone marrow engrafted mouse model; assay type: in vivo; details: REC-1 bone marrow engraftment, 100 mg/kg/day p.o.
Procedure: Five-week old female NOD-SCID mice were purchased from the Beijing Vital River Laboratory Animal Technology Co., Ltd (Beijing, China). All animals were housed in a specific pathogen free facility and used according to the animal care regulations of Hefei Institutes of Physical Science, Chinese Academy of Sciences. NOD-SCID mice were induced by intraperitoneal injection of cyclophosphamide (CTX) 50 mg/kg daily for two days. 8 million REC-1 cells in 0.3 mL RPMI1640 medium were injected by intravenous after 24 h. […] Mice were monitored daily and were euthanized when moribund or at early signs of hind limb paralysis.

SU-DHL-2 = experiment: anti-proliferative CellTiter-Glo assay; assay type: cell-based; details: Homo sapiens, SU-DHL-2, 72 h
Procedure: as §1

Raji = experiment: anti-proliferative CellTiter-Glo assay; assay type: cell-based; details: Homo sapiens, 72 h
Procedure: as §1

Pfeiffer = experiment: anti-proliferative CellTiter-Glo assay; assay type: cell-based; details: Homo sapiens, 72 h
Procedure: as §1

U2932 = experiment: anti-proliferative CellTiter-Glo assay; assay type: cell-based; details: Homo sapiens, U2932, 72 h
Procedure: as §1

Ramos = experiment: anti-proliferative CellTiter-Glo assay; assay type: cell-based; details: Homo sapiens, 72 h
Procedure: as §1

JEKO-1 = experiment: anti-proliferative CellTiter-Glo assay; assay type: cell-based; details: Homo sapiens, JeKo-1, 72 h
Procedure: as §1

DOHH2 = experiment: anti-proliferative CellTiter-Glo assay; assay type: cell-based; details: Homo sapiens, DOHH-2; DOHH2, 72 h
Procedure: as §1

WSU-DLCL2 = experiment: anti-proliferative CellTiter-Glo assay; assay type: cell-based; details: Homo sapiens, WSUDLCL2; WSU-DLCL2, 72 h
Procedure: as §1

SU-DHL-6 = experiment: anti-proliferative CellTiter-Glo assay; assay type: cell-based; details: Homo sapiens, SU-DHL-6, 72 h
Procedure: as §1

SMILES	concentration in the tumor [1]	GI50 (TMD8)	GI50 (REC-1)	TGI [2]	TGI [3]	effect on antibody-dependent NK-cell-mediated cytotoxicity (ADCC) (Mino cells)	effect on antibody-dependent NK-cell-mediated cytotoxicity (ADCC) (SK-OV-3 cells)	median survival time [4]	GI50 (SU-DHL-2)	GI50 (Raji)	GI50 (Pfeiffer)	GI50 (U2932)	GI50 (Ramos)	GI50 (JEKO-1)	GI50 (DOHH2)	GI50 (WSU-DLCL2)	GI50 (SU-DHL-6)
CC#CC(=O)N1CCC[C@H]1c1nc(-c2ccc(C(=O)Nc3ccccn3)cc2)c2c(N)nccn12 [Acalabrutinib]	1300 nM	20 ± 3 nM	30 ± 2 nM	58%	–	–	–	–	–	–	–	–	–	–	–	–	–
C=CC(=O)N1CCC[C@@H](n2nc(-c3ccc(Oc4ccccc4)cc3)c3c(N)ncnc32)C1 [Ibrutinib, reference compound]	1230 nM	1 ± 0.1 nM	30 ± 21 nM	59%	90%	significantly impaired	significantly impaired	39 days	4900 ± 200 nM	6100 ± 1800 nM	1200 ± 120 nM	1400 ± 1200 nM	3800 ± 660 nM	2000 ± 150 nM	260 ± 180 nM	180 ± 100 nM	370 ± 55 nM
